Measured values: ChEMBL document CHEMBL5512692, “Colloidal Aggregation Confounds Cell-Based Covid-19 Antiviral Screens” (J Med Chem, 2024)
The source made the active and inactive calls. The calls are words filed in the database; no cut-off is given here.

Experiments:
Bacteria [1] = assay: (§1) Inhibition of Beta-lactamase AmpC (unknown origin) using CENTA as chromogenic substrate assessed as enzyme recovery by measuring residual activity at approximately IC90 preincubated for 5 mins in presence of triton X-0.01% followed by substrate addition and measured for 80 sec by absorbance based analysis relative to control; details: time 380.0 sec
[2] = Aggregation property of compound in 50 mM KPi buffer at pH 7 assessed as critical aggregation concentration by DLS assay; format: physicochemical
[3] = Inhibition of Beta-lactamase AmpC (unknown origin) using CENTA as chromogenic substrate preincubated for 5 mins followed by substrate addition and measured for 80 sec by absorbance based analysis; set-up: species or system Bacteria
Bacteria [4] = assay: as §1, with “of 10 mg/ml BSA” for “of triton X-0.01%”, “by enzyme” for “by substrate”, “measured after 5 mins” for “measured for 80 sec”; details: time 10.0 min
[5] = Aggregation property of compound in DMEM media assessed as critical aggregation concentration by DLS assay; format: physicochemical
[6] = Absorption property of compound in DMEM media at 100 to 200 uM at 500 to 700 nm by luciferase assay; format: physicochemical; details: dose 100-200 µM
SARS-CoV-2 [7] = assay: Antiviral activity against SARS CoV-2 spike-pseudotyped lentivirus infected in human A549-hACE2-TMPRSS2 cells assessed as inhibition of viral entry incubated for 24 hrs in absence of BSA by luciferase reporter assay; format: functional, organism-based; details: Severe acute respiratory syndrome coronavirus 2, A549-hACE2-TMPRSS2, 24 h
SARS-CoV = assay: Antiviral activity against HIV-Luc pseudotyped SARS CoV infected in Vero E6 cells assessed as reduction in virus entry preincubated for 30 mins followed by infection in cells and measured after 36 hrs by luciferase assay; format: functional, organism-based; details: Severe acute respiratory syndrome-related coronavirus, Vero C1008
SARS-CoV-2 [8] = assay: Antiviral activity against SARS-CoV-2 infected in Vero E6 cells assessed as reduction in virus induced cytopathic effect pretreated for 30 mins followed by virus infection and measured after 72 hrs by MTS assay; format: functional, organism-based; details: Severe acute respiratory syndrome coronavirus 2, Vero C1008
[9] = Inhibition of porcine heart MDH using oxaloacetic acid as substrate preincubated for 5 mins followed by substrate and […] addition and measured for 80 sec by absorbance based analysis; set-up: species or system Sus scrofa
Sus scrofa [10] = species: Sus scrofa; assay: (§2) Inhibition of porcine heart MDH using oxaloacetic acid as substrate assessed as enzyme recovery by measuring residual activity at approximately IC90 preincubated for 5 mins in presence of 10 mg/ml BSA followed by enzyme addition and measured after 5 mins by absorbance based analysis relative to control; details: time 10.0 min
SARS-CoV-2 [11] = assay: Antiviral activity against luciferase independent SARS CoV-2 spike-pseudotyped lentivirus infected in human A549-hACE2-TMPRSS2 cells assessed as inhibition of viral entry at 31.6 to 63.3 uM compound spin-down for 1 hr followed by viral infection and measured after 24 hrs by luciferase reporter assay; format: functional, organism-based; details: Severe acute respiratory syndrome coronavirus 2, dose 31.6-63.3 µM, time 25.0 hrs
Sus scrofa [12] = species: Sus scrofa; assay: as §2, with “of triton X-0.01%” for “of 10 mg/ml BSA”, “by substrate and […]” for “by enzyme”, “measured for 80 sec” for “measured after 5 mins”; details: time 380.0 sec

Row | SMILES | Activity (Bacteria [1]) [%] | CAC [2] [µM] | IC50 [3] [nM] | Activity (Bacteria [4]) [%] | CAC [5] [µM] | Activity [6] | EC50 (SARS-CoV-2 [7]) [nM] | EC50 (SARS-CoV) [nM] | EC50 (SARS-CoV-2 [8]) [nM] | IC50 [9] [nM] | Activity (Sus scrofa [10]) [%] | Activity (SARS-CoV-2 [11]) | Activity (Sus scrofa [12]) [%]
1 | O=C(OC[C@H]1O[C@@H](OC(=O)c2cc(O)c(O)c(O)c2)[C@H](OC(=O)c2cc(O)c(O)c(O)c2)[C@@H](OC(=O)c2cc(O)c(O)c(O)c2)[C@@H]1O)c1cc(O)c(O)c(O)c1 | 51 | 12 | 13000 | 80 | 9.8 | Not Active | 70 | 2860 |  |  |  |  | 
2 | Cc1ccc(C(=O)Nc2ccc(S(=O)(=O)O)c3cc(S(=O)(=O)O)cc(S(=O)(=O)O)c23)cc1NC(=O)c1cccc(NC(=O)Nc2cccc(C(=O)Nc3cc(C(=O)Nc4ccc(S(=O)(=O)O)c5cc(S(=O)(=O)O)cc(S(=O)(=O)O)c45)ccc3C)c2)c1 [SURAMIN] |  |  |  |  |  | Not Active |  |  | 20000 | 1200 | 91 | Active | -4.8
